From US7674486B2, “Synergistic composition for the treatment of diabetes mellitus” (Indus Biotech Pvt. Ltd., priority 2003, dated 2010)

Tests used:
[1] = Comparative hypoglycemic activity of fenugreek seed powder, fenugreek components and the composition; conditions: in vivo
Excerpt: The comparative results of fenugreek seed powder (whole), and the composition of the instant application are shown below to establish inventiveness of the application.
The activity was restricted to only a couple of components. Also, synergy was observed by a selective combination of three components of the composition. The same is elaborated with the help of experimental data as given below.

normal Swiss Albino mice = assay: GTT in normal Swiss Albino mice (BSL); assay type: in vivo, mouse; conditions: glucose 2 gm/kg i.p.; oral: Total amino acids 10 mg/kg, Trigonelline 75 mg/kg, Glyburide 10 mg/kg, Composition 30 mg/kg
Excerpt: The animals were fed in the following manner. • 1) Administration of 2 gm/kg of glucose by Inter Peritonially. • 2) Administration of the drug (Orally): [table] […] After centrifugation, the homogenate was characterized by thin layer chromatography and K^+ Ions by Biolyte analyser.

[2] = system: pancreas (potassium channel mediated insulin secretion); assay: K+ ions in pancreas homogenate by Biolyte analyser; assay type: in vivo, mouse; conditions: pancreas homogenate at 1 hour; oral: Total amino acids 10 mg/kg, Trigonelline 75 mg/kg, Glyburide 10 mg/kg, Composition 30 mg/kg
Description: EXPERIMENT 6:—The effect of the composition prepared as per Experiment 1 & 2 as well as their individual components separated on column chromatography were studied on normal Swiss Albino mice (male) in the weight range of 25-30 gms for GTT. The animals were fed in the following manner. • 1) Administration of 2 gm/kg of glucose by Inter Peritonially. • 2) Administration of the drug (Orally):
• 3) Measurement of BSL at 0 minutes & 1 hour. • 4) Immediately after blood removal at 1 hour, the animals were sacrificed by tail flicking and the pancreas was removed and homogenized using tris buffer. After centrifugation, the homogenate was characterized by thin layer chromatography and K^+ Ions by Biolyte analyser. Following are the observations:
Decreased K+ ion concentration indicates the repolarisation effect as the ATP dependant IK-ATP

[3] = system: Female wistar rats, sciatic nerve; assay: Partial sciatic nerve ligation: thermal hyperalgesia (hot plate); assay type: in vivo, rat; conditions: 50 mg/kg, nerve ligated
Description: This experiment is conducted to evaluate the neuropathy effects. • 1. Partial Sciatic Nerve Ligation • 2.
(§1) Surgery:—Under ether anesthesia and aseptic conditions the right sciatic nerve was exposed at high thigh level. In sham operated animals the nerve was left intact and the wound was closed with 2 muscle suture and 3-4 skin sutures.
(§2) In experimental animals the sciatic nerve underwent partial injury. The dorsum of the nerve was carefully freed from surrounding connective tissues at a site near the trochanter just distil to the point at which the posterior biceps semitendinosus nerve branches off the common sciatic nerve. Using an irish forceps the nerve was fixed in its place by pinching the epineurium on its dorsal aspect, taking care not to press the nerve against underlying structures. An 4-0 silk suture was inserted into the nerve with ⅜ curved, reverse-cutting mini needle, and tightly ligated so that the dorsal ⅓−½ of the nerve thickness was trapped in the ligature. The wound was then closed as in sham operated rats. In all rats the left leg and sciatic nerve were untouched.
(§3) The animals were divided into following groups:—
(§4) Group 1 Control (vehicle treated) (but nerve not ligated)
(§5) Group 2 Sham treated (vehicle treated)(Surgery done but no ligation of nerve)
(§6) Group 3 Vitamin E acetate (50 mg/kg) (nerve ligated)
(§7) Group 4 Indus test drug (100 mg/kg) (nerve ligated)
(§8) Group 5 Indus test drug (200 mg/kg) (nerve ligated)
• a. Thermal hyperalgesia (TH):—This was assessed using Ugo Basile Hot Plate instrument (at 55±1° C.). Antinociceptive effects were determined according to the latency (in seconds) of limb withdrawal to the noxious thermal simulation (Ugo Basile hot plate, Versace, Italy). Cut off value of planter test was set to 22 s to prevent limb injury. The pain threshold were tested on day 0, 2, 4, 6, 8, 10, 12, 14, 21 and 28. • b. Motor function test (MFT):—Motor function was monitored by observation of spontaneous gait and hind paw posture. Each animal was placed in a plastic box with plexiglass walls and allowed to habituate for at least 5 minutes before the observation period. […] The readings were observed on day 0, 2, 15 and 30.

[4] = system: Female wistar rats, sciatic nerve; assay: Partial sciatic nerve ligation: motor function test, pain scale; assay type: in vivo, rat; conditions: 50 mg/kg, scale 0 nil to 5 highly severe
Description: This experiment is conducted to evaluate the neuropathy effects. • 1. Partial Sciatic Nerve Ligation • 2. Formalin Induced Behavioral And Thermal Hyperalgesia Experiment 1: Partial Sciatic Nerve Ligation Material and Method:— Preparation of Animals:— Animals:—Female wistar rats 175-250 gram (n=6)
as §1, §2, §3, §4, §5, §6, §7, §8
• a. Thermal hyperalgesia (TH):—This was assessed using Ugo Basile Hot Plate instrument (at 55±1° C.). Antinociceptive effects were determined according to the latency (in seconds) of limb withdrawal to the noxious thermal simulation (Ugo Basile hot plate, Versace, Italy). […] Motor function test (MFT):—Motor function was monitored by observation of spontaneous gait and hind paw posture. […] The readings were observed on day 0, 2, 15 and 30.

Male wistar rats, kidney = assay: Diabetic nephropathy model (Alloxan plus left renal artery clamping); assay type: in vivo, rat
Description: Male wistar rats of 150-200 gram were injected Alloxan (150 mg/kg i.p.) to induce diabetes. Once the animals show blood sugar above 250 mg/dl, animals are divided in groups as mentioned below and dosing of same is started as per groups. After 7 days of dosing in test drug groups and 3 days dosing in insulin group surgery is performed. In all groups animals were anesthetized and a small midline incision was made to isolate left renal artery and clamped for 30 minutes after which animals were stitched back. This is a kidney ligation technique to induce diabetic nephropathy in experimental animals. In Group 1, complete procedure was same but no treatment is given. The animals were then allowed to recover and dosing was continued as per given in various groups till day 30th after surgery. Creatinine clearance was noted on 0th, 10th, 20th and 30th day. After 30 days animals were sacrificed and kidney was sent for histopathological evaluation. Group 1 Saline (untreated) Group 2 Test drug (low dose) Group 3 Test drug (medium dose) Group 4 Test drug (high dose) Group 5 Standard (insulin)

Q: Which “Hypoglycemic activity (%)” value [1] does the source give for `C[n+]1cccc(C(=O)[O-])c1` [Trigonelline] here?
A: 31%

Q: What about the “BSL after 1 hour” value (normal Swiss Albino mice) of the same molecule?
A: 233 mg/dL

Q: What about the “BSL at 0 hrs” value (normal Swiss Albino mice) of the same molecule?
A: 341 mg/dL

Q: What about the “K+ Ions (μ Mol)” value [2] of the same molecule?
A: 21.8 μ Mol

Q: For `CC(=O)Oc1c(C)c(C)c2c(c1C)CCC(C)(CCC[C@H](C)CCC[C@H](C)CCCC(C)C)O2` (some centres unmarked) [Vitamin E, Vitamin E acetate], which “Thermal hyperalgesia, latency of limb withdrawal” value (shortened to “Thermal hyperalgesia, latency”) ([3]; 0th day (before ligation)) is on record?
A: 9.51 s

Q: And the “Thermal hyperalgesia, latency” value ([3]; 2nd day)?
A: 3.24 s

Q: What about the “Thermal hyperalgesia, latency” value ([3]; 4th day) of the same molecule?
A: 5.9 s

Q: And the “Thermal hyperalgesia, latency” value ([3]; 6th day)?
A: 7.12 s

Q: And the “Thermal hyperalgesia, latency” value ([3]; 8th day)?
A: 7.95 s

Q: And the “Thermal hyperalgesia, latency” value ([3]; 10th day)?
A: 9.81 s

Q: And the “Thermal hyperalgesia, latency” value ([3]; 12th day)?
A: 9.88 s

Q: What about the “Thermal hyperalgesia, latency” value ([3]; 14th day) of the same molecule?
A: 10.04 s

Q: What about the “Motor function test, Pain scale” value ([4]; 0th day) of the same molecule?
A: 0

Q: What about the “Motor function test, Pain scale” value ([4]; 2nd day) of the same molecule?
A: 2.77

Q: What about the “Motor function test, Pain scale” value ([4]; 15th day) of the same molecule?
A: 1.25

Q: Which results are given for `COc1ccc(Cl)cc1C(=O)NCCc1ccc(S(=O)(=O)NC(=O)NC2CCCCC2)cc1` [Glyburide]?
A: BSL after 1 hour (normal Swiss Albino mice): 251 mg/dL; BSL at 0 hrs (normal Swiss Albino mice): 365 mg/dL; K+ Ions (μ Mol) [2]: 22.5 μ Mol

Q: Which results are given for insulin: Standard in nephropathy model?
A: Histopathology of the kidney: cellularity and matrix (Male wistar rats, kidney; insulin group): did not show any increase in cellularity and matrix; Histopathology of the kidney: tubular necrosis, interstitial fibrosis (Male wistar rats, kidney; insulin treated group): very mild
